{"source": "patent US20260217776A1", "about": "“COMPOUND WITH ANTITUMOR ACTIVITY, COR[…] AND COR[…]” (priority 2023, published 2026)", "key": {"[1]": {"tested_on": "KB31 human epidermoid carcinoma cell line", "details": "for cell viability: KB31 line, peptide 150 μM, untreated 100%", "procedure": "(§1) The cytotoxic activity assays were performed using a […] human epidermoid carcinoma cell line (American Type Culture Collection) and, as control, non-tumor cell lines of normal dermal fibroblasts (NDFa) and immortalized human keratinocytes (HACAT).\n(§2) The used cells were placed in culture dishes (Corning®) and treated with the peptide (at a concentration of 150 μM) for 1 day and 6 days. In parallel, the same lines were prepared, without being treated with the peptide, as a negative control.\n(§3) The analyzes were performed with a resazurin-based cytotoxicity assay (Sigma Aldrich) and a trypan blue exclusion assay."}, "in vitro": {"assay": "in vitro", "procedure": "as §1, §2, §3"}, "[2]": {"tested_on": "KB31 human epidermoid carcinoma cell line", "assay": "apoptotic activity assay (BD cell viability kit)", "type": "cell-based", "details": "peptide 150 μM", "procedure": "(§4) The same cell lines were used to verify the apoptotic activity of the peptide, providing the same treatment and the same negative controls. The percentage of apoptotic cells was determined using a BD™ cell viability kit (BD Biosciences), following the manufacturer's instructions. The results are expressed as average values in percentages taking into account the standard error of the mean (SEM)."}, "[3]": {"tested_on": "immortalized human keratinocytes (HACAT)", "assay": "apoptotic activity assay (BD cell viability kit)", "type": "cell-based", "details": "HACAT line, peptide 150 μM", "procedure": "as §4"}, "[4]": {"tested_on": "normal dermal fibroblasts (NDFa)", "assay": "apoptotic activity assay (BD cell viability kit)", "type": "cell-based", "details": "NDFa line, peptide 150 μM", "procedure": "as §4"}, "[5]": {"details": "human, immortalized keratinocytes (HACAT)"}, "[6]": {"details": "normal dermal fibroblasts (NDFa)"}}, "note": "Where two headings read alike, the source gives them in different places. Bridge positions count the residues as written; N and C are the ends. Peptide text beside a SMILES is read from it.", "data": [{"compound": "CC(C)C[C@@H]1NC(=O)[C@H](CC(=O)O)NC(=O)[C@H](CC(N)=O)NC(=O)[C@H](CCCCN)NC(=O)[C@H](CCCNC(=N)N)NC(=O)CNC(=O)[C@H](CCC(=O)O)NC(=O)[C@H](Cc2c[nH]cn2)NC(=O)CNC(=O)[C@H](CCCNC(=N)N)NC(=O)[C@H](CCC(=O)O)NC(=O)[C@H](CO)NC(=O)[C@H](CC(C)C)NC(=O)[C@H]([C@@H](C)O)NC(=O)[C@H](CC(C)C)NC(=O)[C@H](CC(C)C)NC(=O)[C@@H]2CCCN2C(=O)[C@@H](NC(=O)[C@@H](N)CO)CSSC[C@@H](C(=O)N[C@@H](CCCNC(=N)N)C(=O)O)NC(=O)[C@H](CCC(=O)O)NC(=O)[C@H](C(C)C)NC(=O)[C@H](CCCCN)NC(=O)[C@H](CCCCN)NC1=O", "note": "[peptide] (H-SCPLLTLSERGHEGRKNDLKKVECR-OH; disulfide 2-24; N-terminus assumed)", "values": [{"measurement": "cell viability", "setting": "[1]; 1 day", "value": 77, "unit": "%"}, {"measurement": "cell viability", "setting": "[1]; 6 days", "value": "approximately 45%"}, {"measurement": "selectivity toward tumor cells", "setting": "[1]; KB31 tumor cells versus non-tumor NDFa and HACAT, cytotoxic and apoptotic assays", "value": "good selectivity toward tumor cells"}, {"measurement": "viability at 1 day, 150 μM", "setting": "in vitro; [5]", "value": "~85", "unit": "%"}, {"measurement": "viability at 6 days, 150 μM", "setting": "in vitro; [5]", "value": "~85", "unit": "%"}, {"measurement": "viability at 1 day, 150 μM", "setting": "in vitro; [6]", "value": "~80", "unit": "%"}, {"measurement": "viability at 6 days, 150 μM", "setting": "in vitro; [6]", "value": "~80", "unit": "%"}, {"measurement": "apoptosis (percentage of apoptotic cells)", "setting": "[2]; 1 day", "value": "less than 5%"}, {"measurement": "apoptosis (percentage of apoptotic cells)", "setting": "[2]; 6 days, negative control just over 10%", "value": "more than 50%"}, {"measurement": "apoptosis (percentage of apoptotic cells)", "setting": "[3]; 1 day", "value": "less than 5%"}, {"measurement": "apoptosis (percentage of apoptotic cells)", "setting": "[3]; 6 days", "value": "less than 5%"}, {"measurement": "apoptosis (percentage of apoptotic cells)", "setting": "[4]; 1 day", "value": "less than 5%"}, {"measurement": "apoptosis (percentage of apoptotic cells)", "setting": "[4]; 6 days", "value": "less than 5%"}]}]}
